Reference: US20050222122A1, “Statin therapy for enhancing cognitive maintenance” (priority 2002, published 2005)

Columns and labels:
serum β-amyloid = settings: patients with high low-density lipoprotein cholesterol; lovastatin 40 or 60 mg; cited from earlier work
[1] = test system: patients with Alzheimer's disease; assay: Change in ADAS-cog/11 in combined double-blind, placebo-controlled galantamine clinical trials (5 to 6 months); format: in vivo, human; settings: combined trial data, galantamine 24 mg daily, controls for study and AD severity
Description: The objective was to evaluate the effect of statins on cognitive maintenance in patients with Alzheimer's disease during 5- and 6-month randomized clinical trials of galantamine.
Data were combined from 3 double-blind, placebo-controlled clinical trials limited to patients treated with galantamine 24 mg daily or placebo
Patients were categorized based on galantamine status and any statin use.
Changes in the Alzheimer's Disease Assessment Scale-cognitive subscale with standard 11 items (ADAS-cog/11) using last observation carried forward (LOCF) were assessed
Comparisons between patient subgroups were made controlling for relevant confounding factors.

| SMILES | serum β-amyloid (serum β-amyloid) | ADAS-Cog change score, LS Means (SE) ([1]; Intent-to-treat analysis (LOCF)) | ADAS-Cog change score, LS Means (SE) ([1]; Intent-to-treat analysis (LOCF), listed as GAL-only) | ADAS-Cog change score, LS Means (SE) ([1]; Observed cases) |
| --- | --- | --- | --- | --- |
| CC[C@H](C)C(=O)O[C@H]1C[C@@H](C)C=C2C=C[C@H](C)[C@H](CC[C@@H]3C[C@@H](O)CC(=O)O3)[C@H]21 [lovastatin] | decreased serum β-amyloid |  |  |  |
| COc1ccc2c3c1O[C@H]1C[C@@H](O)C=C[C@@]31CCN(C)C2 [GAL 24 only, (4aS,6R,8aS)-4a, 5,9,10,11,12-hexahydro-3-methoxy-1 1-methyl-6H-benzofuro[3a,3,2-ef][2]benzazepin-6-ol] |  | −0.88 (0.25) | −0.88 | −0.61 (0.28) |
